Assay results from ChEMBL document CHEMBL1128134, “Characterization of a continuous fluorogenic assay for calpain I. Kinetic evaluation of peptide aldehydes, halomethyl ketones and (acyloxy)methyl ketones as inhibitors of the enzyme” (Bioorg Med Chem Lett, 1995).
Square brackets hold non-standard residues; d marks the D form. Peptide text beside a SMILES is read from it. * marks the point of attachment. ξ: configuration not given here. 1Nal = N[C@@H](Cc1cccc2ccccc12)C(=O)O; hPhe = N[C@@H](CCc1ccccc1)C(=O)O; tBuAla = CC(C)(C)C[C@H](N)C(=O)O; Ile(3ξ) = CCC(C)[C@H](N)C(=O)O; ξPhg = NC(C(=O)O)c1ccccc1; ξTle = CC(C)(C)C(N)C(=O)O; Cbz = O=C(OCc1ccccc1)*; ξL = CC(C)CC(N)C(=O)O; CH2Cl = ClC*

Columns and labels:
Calpain 1 (Homo sapiens) = Calpain 1 (Homo sapiens) (UniProt P04632+P07384); assay: Apparent second order rate constant for inhibition of calpain-1 by fluorogenic assay.; format: protein-complex assay
Calpain 1 = Calpain 1 (Homo sapiens, UniProt P07384); assay: Inhibition of Calpain 1 by [3H]acetyl-casein assay; format: protein-complex assay
Calpain 1, sequence (P04632 whole entry): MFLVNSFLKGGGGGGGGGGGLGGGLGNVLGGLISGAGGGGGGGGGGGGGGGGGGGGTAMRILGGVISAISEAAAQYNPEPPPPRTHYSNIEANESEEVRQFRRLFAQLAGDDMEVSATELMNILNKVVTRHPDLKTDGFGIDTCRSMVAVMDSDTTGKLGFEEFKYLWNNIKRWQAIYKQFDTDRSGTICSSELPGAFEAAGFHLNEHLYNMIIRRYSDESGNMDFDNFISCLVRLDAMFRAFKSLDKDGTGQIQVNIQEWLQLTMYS
Calpain 1, sequence (P07384 whole entry): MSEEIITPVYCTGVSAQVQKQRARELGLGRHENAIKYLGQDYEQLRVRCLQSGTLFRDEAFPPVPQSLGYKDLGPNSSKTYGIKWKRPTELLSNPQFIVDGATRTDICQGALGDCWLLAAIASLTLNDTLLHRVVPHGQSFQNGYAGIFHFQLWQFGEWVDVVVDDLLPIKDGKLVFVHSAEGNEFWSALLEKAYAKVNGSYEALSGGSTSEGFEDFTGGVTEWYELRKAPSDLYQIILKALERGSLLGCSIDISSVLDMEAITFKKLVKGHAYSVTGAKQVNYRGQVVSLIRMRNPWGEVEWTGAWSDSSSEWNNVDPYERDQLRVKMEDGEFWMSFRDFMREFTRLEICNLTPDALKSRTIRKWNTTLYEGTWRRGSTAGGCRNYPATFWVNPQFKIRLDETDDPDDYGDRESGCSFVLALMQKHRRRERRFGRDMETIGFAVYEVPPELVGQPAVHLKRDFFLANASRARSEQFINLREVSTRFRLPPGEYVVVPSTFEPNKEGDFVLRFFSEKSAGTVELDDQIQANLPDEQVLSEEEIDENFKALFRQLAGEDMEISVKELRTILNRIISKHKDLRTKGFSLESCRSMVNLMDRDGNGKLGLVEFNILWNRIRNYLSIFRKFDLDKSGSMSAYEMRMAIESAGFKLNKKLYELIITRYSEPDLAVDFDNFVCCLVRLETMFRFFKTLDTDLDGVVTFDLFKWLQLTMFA

[1] = biological target: Procathepsin L (Homo sapiens) (UniProt P07711); assay: Inhibition of cathepsin L (fluorogenic assay), apparent second order rate constant
Procathepsin L (Homo sapiens), sequence (P07711 114-333 limits assumed): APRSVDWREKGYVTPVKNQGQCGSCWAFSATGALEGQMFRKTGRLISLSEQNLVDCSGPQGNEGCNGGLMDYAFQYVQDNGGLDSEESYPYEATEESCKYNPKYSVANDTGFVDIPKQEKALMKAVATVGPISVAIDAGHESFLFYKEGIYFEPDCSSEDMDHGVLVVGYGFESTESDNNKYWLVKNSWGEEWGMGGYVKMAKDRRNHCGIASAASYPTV

[2] = biological target: Cathepsin B (Homo sapiens) (UniProt P07858); assay: Apparent second order rate constant for inhibition of cathepsin B by fluorogenic assay.

k obs / 1 (Calpain 1 (Homo sapiens)) [M⁻¹ s⁻¹]	IC50 (Calpain 1) [nM]	k obs / 1 [1] [M⁻¹ s⁻¹]	k obs / 1 [2] [M⁻¹ s⁻¹]	SMILES
8000				CC(C)CC(NC(=O)OC(C)(C)C)C(=O)NC(Cc1ccccc1)C(=O)COC(=O)c1c(F)cccc1F (stereo unspecified)
	100			CC(C)[C@H](NC(=O)OCc1ccccc1)C(=O)N[C@H](C=O)Cc1cccc2ccccc12 (Cbz-Val-[1Nal]-aldehyde)
< 500			50	CC(C)C[C@H](NC(=O)OCc1ccccc1)C(=O)N[C@@H](Cc1ccc(O)cc1)C(=O)CBr
3300			2700	CC(C)C[C@H](NC(=O)CNC(=O)OCc1ccccc1)C(=O)N[C@@H](Cc1ccccc1)C(=O)CCl (Cbz-Gly-Leu-Phe-CH2Cl)
	100			O=C[C@H](Cc1ccccc1)NC(=O)C(NC(=O)OCc1ccccc1)c1ccccc1 (stereo partly specified) (Cbz-[ξPhg]-Phe-aldehyde)
700				O=C(CNC(=O)OCc1ccccc1)NC(Cc1ccccc1)C(=O)COC(=O)c1c(Cl)cccc1Cl (stereo unspecified)
< 500				CC(NC(=O)OCc1ccccc1)C(=O)NCC(=O)COC(=O)c1c(Cl)cccc1Cl (stereo unspecified)
900				O=C(CNC(=O)OCc1ccccc1)NC(Cc1ccccc1)C(=O)COC(=O)c1c(Cl)ccc(S(=O)(=O)NCC(=O)OCc2ccccc2)c1Cl (stereo unspecified)
6000				CC(C)CC(NC(=O)OCc1ccccc1)C(=O)NCC(=O)COC(=O)c1c(Cl)ccc(OCCN2CCOCC2)c1Cl (stereo unspecified)
20000		63000	5500	CC(C)C(NC(=O)OCc1ccccc1)C(=O)NC(Cc1ccccc1)C(=O)COC(=O)c1c(Cl)ccc(S(=O)(=O)CCN2CCOCC2)c1Cl (stereo unspecified)
14000				CC(C)CC(NC(=O)OCc1ccccc1)C(=O)NC(Cc1ccc(O)cc1)C(=O)COC(=O)c1c(Cl)ccc(S(=O)(=O)N2CCOCC2)c1Cl (stereo unspecified)
7000				CC(C)CC(NC(=O)OCc1ccccc1)C(=O)NC(Cc1ccc(O)cc1)C(=O)COC(=O)c1c(F)cccc1F (stereo unspecified)
< 500			220000	CC(NC(=O)C(Cc1ccccc1)NC(=O)OCc1ccccc1)C(=O)CCl (stereo unspecified)
19000		1600	2200	CC(C)C[C@H](NC(=O)[C@H](C)NC(=O)OCc1ccccc1)C(=O)N[C@@H](Cc1ccccc1)C(=O)COC(=O)c1c(F)cccc1F
	30			COc1ccc(C[C@@H](C=O)NC(=O)[C@@H](NC(=O)OCc2ccccc2)C(C)C)cc1 (Cbz-Val-Tyr(Me)-aldehyde)
< 500				CC(C)CC(C(=O)NC(Cc1ccccc1)C(=O)COC(=O)c1c(F)cccc1F)N(C)C(=O)OCc1ccccc1 (stereo unspecified)
5500			2500	CC(C)CC(NC(=O)OCc1ccccc1)C(=O)NC(Cc1ccccc1)C(=O)CCl (stereo not drawn) (Cbz-Leu-Phe-CH2Cl; configuration not given here)
	55			CCC(C)[C@H](NC(=O)OCc1ccccc1)C(=O)N[C@H](C=O)Cc1ccc(O)cc1 (stereo partly specified) (Cbz-[Ile(3ξ)]-Tyr-aldehyde)
54000		50000	2600	CC(C)CC(NC(=O)OCc1ccccc1)C(=O)NC(Cc1ccc(O)cc1)C(=O)COC(=O)c1c(Cl)ccc(S(=O)(=O)CCN2CCOCC2)c1Cl (stereo unspecified)
43000		90000	4700	COC(=O)N[C@H](C)C(=O)NC(CC(C)C)C(=O)NC(Cc1ccccc1)C(=O)COC(=O)c1c(Cl)ccc(OCCN2CCOCC2)c1Cl (stereo partly specified)
17000				CC(C)CC(NC(=O)OCc1ccccc1)C(=O)NC(Cc1ccccc1)C(=O)COC(=O)c1c(Cl)ccc(S(=O)(=O)N2CCOCC2)c1Cl (stereo unspecified)

The remaining lines, values behind:

SMILES	k obs / 1 (Calpain 1 (Homo sapiens)) [M⁻¹ s⁻¹]	IC50 (Calpain 1) [nM]	k obs / 1 [1] [M⁻¹ s⁻¹]	k obs / 1 [2] [M⁻¹ s⁻¹]
CC(C)CC(NC(=O)OCc1ccccc1)C(=O)NC(Cc1ccccc1)C(=O)COC(=O)c1c(Cl)ccc(S(=O)(=O)CCN2CCOCC2)c1Cl (stereo unspecified)	30000		38000	80
CC(C)(C)C(NC(=O)OCc1ccccc1)C(=O)N[C@H](C=O)Cc1ccccc1 (stereo partly specified) (Cbz-[ξTle]-Phe-aldehyde)		500		
CC(C)CC(NC(=O)OCc1ccccc1)C(=O)NCC(=O)COC(=O)c1c(Cl)ccc(S(=O)(=O)N2CCOCC2)c1Cl (stereo unspecified)	23000		160000	260000
CC(NC(=O)C(Cc1ccccc1)NC(=O)OCc1ccccc1)C(=O)COC(=O)c1c(Cl)ccc(OCCN2CCOCC2)c1Cl (stereo unspecified)	< 500		180000	150000
CC(C)C[C@H](NC(=O)OCc1ccccc1)C(=O)N[C@@H](CC(C)C)C(=O)N[C@@H](Cc1ccccc1)C(=O)CCl (Cbz-Leu-Leu-Phe-CH2Cl)	9500			30000
CC(C)CC(NC(=O)OCc1ccccc1)C(=O)NC(Cc1ccccc1)C(=O)COC(=O)c1c(F)cccc1F (stereo unspecified)	9000			
CC(C)CC(NC(=O)[C@@H](C)NC(=O)OCc1ccccc1)C(=O)NC(Cc1ccccc1)C(=O)COC(=O)c1c(Cl)ccc(OCCN2CCOCC2)c1Cl (stereo partly specified)	32000		28000	400
C[C@H](NC(=O)OCc1ccccc1)C(=O)N[C@H](C=O)Cc1ccccc1		140		
O=C[C@H](Cc1ccccc1)NC(=O)[C@H](Cc1ccccc1)NC(=O)OCc1ccccc1 (Cbz-Phe-Phe-aldehyde)		400		
CC(=O)Nc1cccc(Cl)c1C(=O)OCC(=O)CNC(=O)C(CC(C)C)NC(=O)OCc1ccccc1 (stereo unspecified)	600			
NC(=O)CC(NC(=O)OCc1ccccc1)C(=O)NC(Cc1ccccc1)C(=O)CCl (stereo not drawn) (Cbz-Asn-Phe-CH2Cl; configuration not given here)	600			3000
CC(C)CC(NC(=O)OCc1ccccc1)C(=O)NC(Cc1ccc(O)cc1)C(=O)CCl (stereo not drawn) (Cbz-Leu-Tyr-CH2Cl; configuration not given here)	1500			2000
O=C[C@H](Cc1ccccc1)NC(=O)[C@H](CCc1ccccc1)NC(=O)OCc1ccccc1 (Cbz-[hPhe]-Phe-aldehyde)		270		
CC(C)CC(NC(=O)[C@@H](C)NC(=O)OCc1ccccc1)C(=O)NC(Cc1ccccc1)C(=O)COC(=O)c1c(F)cccc1F (stereo partly specified)	31000		300	100
CC(C)C(NC(=O)OCc1ccccc1)C(=O)NCC(=O)COC(=O)c1c(Cl)cccc1Cl (stereo unspecified)	800			
CC(C)CC(NC(=O)[C@@H](Cc1ccccc1)NC(=O)OCc1ccccc1)C(=O)NC(Cc1ccccc1)C(=O)COC(=O)c1c(F)cccc1F (stereo partly specified)	1000		100	100
Cc1cccc(C)c1C(=O)OCC(=O)C(Cc1ccccc1)NC(=O)C(NC(=O)OCc1ccccc1)C(C)C (stereo unspecified)	700			
CC(C)C[C@H](NC(=O)[C@@H]1CCCN1C(=O)OCc1ccccc1)C(=O)N[C@@H](Cc1ccccc1)C(=O)COC(=O)c1c(F)cccc1F	26500			11000
O=C[C@H](Cc1ccccc1)NC(=O)[C@H](Cc1cccc2ccccc12)NC(=O)OCc1ccccc1 (Cbz-[1Nal]-Phe-aldehyde)		> 1000		
CC(NC(=O)C(Cc1ccccc1)NC(=O)OCc1ccccc1)C(=O)COC(=O)c1c(Cl)cccc1Cl (stereo unspecified)	< 500		104000	360000
CC(C)C[C@H](NC(=O)OCc1ccccc1)C(=O)N[C@H](C=O)Cc1ccccc1 (Cbz-Leu-Phe-aldehyde)		35		

SMILES	k obs / 1 (Calpain 1 (Homo sapiens)) [M⁻¹ s⁻¹]	IC50 (Calpain 1) [nM]	k obs / 1 [1] [M⁻¹ s⁻¹]	k obs / 1 [2] [M⁻¹ s⁻¹]
CC(C)[C@H](NC(=O)OCc1ccccc1)C(=O)N1CCC[C@H]1C=O (Cbz-Val-Pro-aldehyde)		> 1000		
CC(C)CC(NC(=O)OCc1ccccc1)C(=O)NC(Cc1ccc(O)cc1)C(=O)COC(=O)c1c(Cl)cccc1Cl (stereo unspecified)	28000		33000	1600
CC(C)(C)C[C@H](NC(=O)OCc1ccccc1)C(=O)N[C@H](C=O)Cc1ccccc1 (Cbz-[tBuAla]-Phe-aldehyde)		100		
CC(C)CC(NC(=O)OCc1ccccc1)C(=O)NC(C)C(=O)COC(=O)c1c(Cl)ccc(S(=O)(=O)N2CCOCC2)c1Cl (stereo unspecified)	14000			
CC(C)CC(NC(=O)CNC(=O)OCc1ccccc1)C(=O)NC(Cc1ccccc1)C(=O)COC(=O)c1c(F)cccc1F (stereo unspecified)	15000		14000	800
CC(C)CC(NC(=O)OCc1ccccc1)C(=O)NC(C)C(=O)COC(=O)c1c(Cl)ccc(OCCN2CCOCC2)c1Cl (stereo unspecified)	6000			58000
CC(C)C(NC(=O)OCc1ccccc1)C(=O)NCC(=O)COC(=O)c1c(Cl)ccc(S(=O)(=O)NCC(=O)OCc2ccccc2)c1Cl (stereo unspecified)	12000		120000	600000
CC(C)CC(NC(=O)OCc1ccccc1)C(=O)NCC(=O)COC(=O)c1c(Cl)cccc1Cl (stereo unspecified)	6000			
CC(C)CC(NC(=O)OCc1ccccc1)C(=O)NC(Cc1ccccc1)C(=O)COC(=O)c1c(Cl)cccc1Cl (stereo unspecified)	11000		2700	250
CC(C)CC(NC(=O)[C@@H](C)NC(=O)OCc1ccccc1)C(=O)NCC(=O)COC(=O)c1c(Cl)ccc(OCCN2CCOCC2)c1Cl (stereo partly specified)	< 500			
Cc1ccc(S(=O)(=O)NC(CC(C)C)C(=O)NC(Cc2ccccc2)C(=O)COC(=O)c2c(F)cccc2F)cc1 (stereo unspecified)	1500			
COC(=O)N[C@H](C)C(=O)NC(CC(C)C)C(=O)NC(Cc1ccccc1)C(=O)COC(=O)c1c(F)cccc1F (stereo partly specified)	1400		400	700
O=C(N[C@@H](Cc1ccccc1)C(=O)N[C@@H](Cc1ccccc1)C(=O)CCl)OCc1ccccc1 (Cbz-Phe-Phe-CH2Cl)	< 500			
CC(C)[C@H](NC(=O)OCc1ccccc1)C(=O)N[C@H](C=O)CCc1ccccc1 (Cbz-Val-[hPhe]-aldehyde)		100		
CC(C)C[C@H](NC(=O)OCc1ccccc1)C(=O)N[C@H](C=O)Cc1ccc(O)cc1 (Cbz-Leu-Tyr-aldehyde)		20		
CC(C)CC(NC(=O)OCc1ccccc1)C(=O)NCC(=O)CCl (stereo unspecified) (Cbz-[ξL]-Gly-CH2Cl)	31000		500000	170000
CC(=O)Nc1cccc(Cl)c1C(=O)OCC(=O)C(C)NC(=O)C(CC(C)C)NC(=O)OCc1ccccc1 (stereo unspecified)	500			
CC(C)CC(NC(=O)OCc1ccccc1)C(=O)NC(C)C(=O)CCl (stereo unspecified)	6000			43000
CC(C)C(NC(=O)OCc1ccccc1)C(=O)NC(Cc1ccccc1)C(=O)COC(=O)c1c(Cl)cccc1Cl (stereo unspecified)	11000			
O=C(CNC(=O)C(Cc1ccccc1)NC(=O)OCc1ccccc1)COC(=O)c1c(Cl)cccc1Cl (stereo unspecified)	< 500			
